Consider 82 compounds from patent US20090092975A1, “SELECTABLE MARKER” (Mologic Ltd, priority 2005, published 2009).

System in the first data set: not given
As to conditions: Table 1, monocarboxylic weak acids; cited from earlier work.
`O=C(O)C1(C(=O)O)CC1` [1,1-Cyclopropanedicarboxylic acid]: the Pka is 3.114. For the compound `O=C(O)C1=CCCCC1` [1-Cyclohexene-1-carboxylic acid], the Pka is reported as 3.7528. As to `O=C(O)C1=CCCC1` [1-Cyclopentene-1-carboxylic acid], the Pka is given as 3.7528.

Regarding `CC1(C(=O)O)CC1` [1-Methyl-cyclopropane carboxylic acid], the Pka is 5.1. Regarding `CCC(C)(C)C(=O)O` [2,2-Dimethylbutyric acid], the Pka is recorded as 5.03. With `CC#CC(=O)O` [2-Butynoic acid], the Pka was 2.6546. Take `C=C(Cl)C(=O)O` [2-Chloroacrylic acid]: the Pka is on record as 2.6975. Take `O=C(O)c1ccccc1Cl` [2-Chlorobenzoic acid]: the Pka is listed as 2.89. Regarding `CC(Cl)C(=O)O` (stereo not shown) [2-Chloropropionic acid], the Pka was 2.897. `O=C(O)CC1C=CCC1` (stereo not shown) [2-Cyclopentene-1-acetic acid]: the Pka is on record as 4.61. For `CCC(CC)C(=O)O` [2-Ethylbutyric acid], the Pka is recorded as 4.71.

With `O=C(O)c1ccco1` [2-Furoic acid], the Pka is listed as 3.13.

For `CC1CC1C(=O)O` (stereo not shown) [2-Methyl-cyclopropane carboxylic acid], the Pka was 4.8. Take `CCCC(C)C(=O)O` (stereo not shown) [2-Methylvaleric acid]: the Pka is reported as 4.79. Regarding `O=C(O)c1ccccc1[N+](=O)[O-]` [2-Nitrobenzoic acid], the Pka is 2.47.

In the case of `CC(C(=O)O)c1ccccc1` (stereo not shown) [2-Phenylpropionic acid], the Pka is 4.0606. For the compound `CC(C)(C)CC(=O)O` [3,3-Dimethylbutyric acid], the Pka is recorded as 4.961.

Take `O=C(O)c1cccc(Cl)c1` [3-Chlorobenzoic acid]: the Pka is given as 3.81. Take `O=C(O)CCCl` [3-Chloropropionic acid]: the Pka is 3.8924. In the case of `O=C(O)C1CC=CCC1` (stereo not shown) [3-Cyclohexene-1-carboxylic acid], the Pka is reported as 4.593. In the case of `O=C(O)CCC1CCCC1` [3-Cyclopentylpropionic acid], the Pka is 4.81. In the case of `CCCCCCC=CCC(=O)O` [3-Decenoic acid], the Pka is on record as 4.728. On to `CCCC=CCC(=O)O` [3-Heptenoic acid], for which the Pka is given as 4.7696. In the case of `CCC(C)CC(=O)O` (stereo not shown) [3-Methylvaleric acid], the Pka is 4.7868. Consider `O=C(O)c1cccc([N+](=O)[O-])c1` [3-Nitrobenzoic acid], for which the Pka is listed as 3.46.

As for `CCCCC=CCC(=O)O` [3-Octenoic acid], the Pka is given as 4.7926. Consider `CCc1ccc(C(=O)O)cc1` [4-Ethylbenzoic acid], for which the Pka was 4.35. On to `CC(C)CCC(=O)O` [4-Methylvaleric acid], for which the Pka is 4.8689.

As to `C=CCCC(=O)O` [4-Pentenoic acid], the Pka was 4.6364.

Regarding `C#CCCC(=O)O` [4-Pentynoic acid], the Pka is 4.1342. Turning to `O=C(O)CCCc1ccccc1` [4-Phenylbutyric acid], the Pka is given as 4.76. As to `C=CCCCCC(=O)O` [6-Heptenoic acid], the Pka is on record as 4.81. Regarding `C#CCCCCC(=O)O` [6-Heptynoic acid], the Pka is 4.71. Consider `CC(C)=CCC[C@@H](C)CC(=O)O` [(R)(+)Citronellic acid], for which the Pka is on record as 4.752. Regarding `CC(C)c1ccc(C(=O)O)cc1` [Cumic acid], the Pka is recorded as 4.35. Turning to `O=C(O)C1CCCCCC1` [Cycloheptanecarboxylic acid], the Pka is 4.9518. Consider `O=C(O)CC1CCCCCC1` [Cycloheptylacetic acid], for which the Pka is 4.822. `O=C(O)CCCC1CCCCC1` [Cyclohexanebutyric acid]: the Pka is on record as 4.9061. Turning to `O=C(O)CC1CCCCC1` [Cyclohexylacetic acid], the Pka is reported as 4.8806. For `O=C(O)C1CCCC1` [Cyclopentanecarboxylic acid], the Pka is listed as 4.8. `O=C(O)CC1CCCC1` [Cyclopentylacetic acid]: the Pka was 4.76. In the case of `O=C(O)CC1CC1` [Cyclopropylacetic acid], the Pka was 4.8873.

As to `C=C(C)C(=O)O` [Methacrylic acid], the Pka is reported as 4.61. `O=C(O)COc1ccccc1` [Phenoxyacetic acid]: the Pka is listed as 3.17. Consider `O=C(O)Cc1ccccc1` [Phenylacetic acid], for which the Pka is reported as 4.31. For the compound `C#CC(=O)O` [Propiolic acid], the Pka is 2.39. As for `O=C(O)c1ccsc1` [Thiophene-3-carboxylic acid], the Pka is on record as 4.08. As to `C/C=C(\C)C(=O)O` [Tiglic acid], the Pka is reported as 4.4564.

`CCCCCCCCCCC(=O)O` [Undecanoic acid]: the Pka is 5.03. On to `COc1cc(C(=O)O)ccc1O` [Vanillic acid], for which the Pka was 4.51. With `C=CCC(=O)O` [Vinylacetic acid], the Pka was 4.51. `O=C(O)/C=C\Cl` [cis-3-Chloroacrylic acid]: the Pka was 3.2506. As to `COc1cccc(C(=O)O)c1` [m-Anisic acid], the Pka is listed as 4.09. As to `Cc1ccccc1C(=O)O` [o-Toluic acid], the Pka was 3.98. `O=C(O)/C=C/Cl` [trans-3-Chloroacrylic acid]: the Pka was 3.2506. With `C/C=C/CC(=O)O` [trans-3-Pentenoic acid], the Pka was 4.36.

The test system of the next data set is Saccharomyces cerevisiae strain 62 expressing PAD1. The class given is cell-based. As to conditions: predicted decarboxylation product in headspace; weak acid 0.5 mM, YEPD pH 4, 10 h at 28° C.; 0 = no decarboxylation. On the procedure: S. cerevisiae strain 62 (which expresses the PAD1 gene) was cultured for 48 hr in YEPD pH 4, Yeast extract 10 g, Peptone 20 g, Glucose 20 g, at 28° C. in a shake flask, 120 rpm. The stationary-phase cells were inoculated into capped 28 ml McCartney bottles containing 10 mls YEPD pH 4, at 1 million cells per ml. Each bottle also contained one of 70 substrate weak acids at 0.5 mM. Tubes were then shaken for 10 h at 28° C.
1 ml samples of the headspace were passed into stainless-steel thermal desorption tubes, followed by a 10 ml air flush. (Desorption tubes—89 mm×5 mm ID, packed with 200 mg Tenax TA 60-80 mesh, Phase Separations, UK).
Thermal desorption tubes were placed in a Perkin Elmer ATD400 thermal desorption system, and the volatiles transferred to the Gas Chromatograph in a 2 stage process. Primary desorption was 250° C. for 10 min with a helium flow of […]. Using a split ratio of 1:1, volatiles were retained on a cold trap (25 mg Tenax TA) held at −30° C. Secondary desorption was carried out by rapidly heating and holding the cold trap at 250° C. for 2 min, with a helium flow of 20 ml/min and split ratio of 19:1. A DB624 column {30 m×0.32 mm, 1.8 microns film thickness} installed in a Carbo Erba GC800 was used to achieve separation and introduction of the volatile to the mass spectrometer. The column temperature was held at 40° C. for 2 min then increased at 5° C./min to 250° C. The column outlet was coupled via a heated transfer line at 250° C. into the ion source of the mass spectrometer operated at 70 eV in electron ionization (EI) mode. The source temperature was at 200° C. and the detector photomultiplier at 500V. Full scan MS data acquisition was carried out from m/z 30 to 300, with 0.6 sec scan and 0.05 sec inter scan delay.
The results are shown in Table 3, in each case the “predicted product” being the product which would be produced if decarboxylation of the weak acid were to take place.
Consider `O=C(O)C=Cc1ccc(F)c(F)c1F` [2,3,4-Trifluoro-cinnamic acid], for which the “GCMS Peak area” value is reported as 0. Consider `COc1ccc(C=CC(=O)O)c(OC)c1OC` [2,3,4-Trimethoxy-cinnamic acid], for which the “GCMS Peak area” value was 0. As for `O=C(O)C=Cc1ccc(F)cc1F` [2,4-Difluoro-cinnamic acid], the “GCMS Peak area” value is listed as 35698.

For the compound `COc1ccc(C=CC(=O)O)c(OC)c1` [2,4-Dimethoxy-cinnamic acid], the “GCMS Peak area” value was 30. `O=C(O)C=Cc1ccccc1Br` [2-Bromo-cinnamic acid]: the “GCMS Peak area” value is recorded as 2912. Regarding `O=C(O)C=Cc1ccccc1C(=O)O` [2-Carboxy-cinnamic acid], the “GCMS Peak area” value is 0.

Consider `O=C(O)C=Cc1ccccc1Cl` [2-Chloro-cinnamic acid], for which the “GCMS Peak area” value is reported as 4911.

As to `CCOc1ccccc1C=CC(=O)O` [2-Ethoxycinnamic acid], the “GCMS Peak area” value is 193. For the compound `O=C(O)C=Cc1ccccc1F` [2-Fluoro-cinnamic acid], the “GCMS Peak area” value is listed as 3760. Same read-out and setting: under `COc1ccccc1C=CC(=O)O` [2-Methoxy-cinnamic acid] stands 128; under `Cc1ccccc1C=CC(=O)O` [2-Methyl-cinnamic acid], 18046. The same measure, in the same setting: under `O=C(O)C=Cc1ccccc1[N+](=O)[O-]` [2-Nitro-cinnamic acid] stands 0; under `O=C(O)C=Cc1ccccc1C(F)(F)F` [2-Trifluoromethyl-cinnamic acid], 1440.

`O=C(O)C=Cc1cccc(Br)c1` [3-Bromo-cinnamic acid]: the “GCMS Peak area” value is recorded as 248.

As for `O=C(O)C=Cc1cccc(Cl)c1` [3-Choro-cinnamic acid], the “GCMS Peak area” value was 907. Turning to `O=C(O)C=Cc1cccc(F)c1` [3-Fluoro-cinnamic acid], the “GCMS Peak area” value is reported as 14027.

`COc1cccc(C=CC(=O)O)c1` [3-Methoxy-cinnamic acid]: the “GCMS Peak area” value was 178. For `Cc1cccc(C=CC(=O)O)c1` [3-Methyl-cinnamic acid], the “GCMS Peak area” value was 8195. In the case of `O=C(O)C=Cc1cccc([N+](=O)[O-])c1` [3-Nitro-cinnamic acid], the “GCMS Peak area” value was 0. On to `O=C(O)C=Cc1cccc(C(F)(F)F)c1` [3-Trifluoromethyl-cinnamic acid], for which the “GCMS Peak area” value is 946. Regarding `O=C(O)C=Cc1ccc(C=CC(=O)O)cc1` [3-[4-(2-Carboxy-vinyl)-phenyl]-acrylic acid], the “GCMS Peak area” value is 0.

Consider `O=C(O)C=Cc1ccc(Br)cc1` [4-Bromo-cinnamic acid], for which the “GCMS Peak area” value is reported as 1038. For the compound `O=C(O)C=Cc1ccc(Cl)cc1` [4-Choro-cinnamic acid], the “GCMS Peak area” value is reported as 12391. Still for that read-out and setting: under `CN(C)c1ccc(C=CC(=O)O)cc1` [4-Dimethylamino-cinnamic acid] stands 0; under `CCOc1ccc(C=CC(=O)O)cc1` [4-Ethoxycinnamic acid], 227. In the case of `O=Cc1ccc(C=CC(=O)O)cc1` [4-Formyl-cinnamic acid], the “GCMS Peak area” value is 0.
